Test results: patent US20190290576A1, “ANTI-MALARIAL PHARMACEUTICAL COMPOSITION” (Protopharma Limited, priority 2007, published 2019)

Columns and labels:
[1] = Storage stability of artemether in solvent systems, impurities by HPLC; assay type: physicochemical; conditions: in contact with water, ethanol, or propellants
Text: Tables 1 and 2 show impurities present in Artemether API, and artemether in three solvent systems: 20% ethanol+80% propellant; 50% ethanol+50% propellant; 100% ethanol; and a medium chain triglyceride, in this case, the triglyceride sold under the registered trade mark Miglyol® 810. Miglyol® is a medium chain triglyceride containing saturated C8 and C10 fatty acids, typically between 65-80% of caprylic acid (C8:0) and 20-35% of capric acid (C10:0). The propellant used in these test was 1,1,1,2 tetrafluoroethane, sold under the registered trade mark Zephex® 134a. Similar results were obtained for the propellants butane, Zephex® 227 (1,1,1,2,3,3,3 heptafluoropropane) and for a mixture of butane and propane. […] In all other cases, the impurities are at levels that exceed those permitted under the ICH Harmonised Tripartite Guidelines for Impurities in New Drug Products without specific identification or further toxicological examination.

[2] = animals, oral administration; cited from earlier work

- Stability of artemether in contact with solvents [1]: not stable
Compound: CO[C@H]1O[C@@H]2O[C@@]3(C)CC[C@H]4[C@H](C)CC[C@@H]([C@H]1C)[C@@]24OO3 [artemether]
- bioavailability [2]: 19-35%
